In patent EP4491190A1, “SMALL PROTEINS FOR USE AS SENOLYTIC AND SENOMORPHIC AGENTS” (Fundación Imdea Alimentación, priority 2023, dated 2025):

Legend:
Type in all cases: cell-based, human
[1] = system: SKMel-103, A549, Huh7, SH-SY5Y cells; experiment: MTT cell viability in different models of cellular senescence and cancer cell lines; details: senescent cancerous cell lines, senescence by doxorubicin, bleomycin or palbociclib
Protocol: (§1) Cells were plated in 96 well plates at a density of 3×10^3-8×10^3 cells/well (proliferative) or 8×10^3-10×10^3 cells/well (senescent). An MTT assay (Sigma-Aldrich, Merck KGaA, Darmstadt, Germany) was used to measure cell viability after 48-96 h of treatments. Briefly, MTT was diluted in 0.1 M phosphate buffered saline (PBS) and added to cells grown in 96-well plates at a final concentration of 0.5 mg/ml. After incubation for 2-4 hr at 37°C with MTT, the culture medium was removed. The precipitated formazan was solubilized with dimethyl sulfoxide (DMSO). Absorbance was measured at 570 nm using a microplate reader (Victor Nivo; Perkin Elmer, Hamburg, Germany). For these assays, the effects of vehicle or treatments were expressed as the % of change of the non-treated cells.
Next, it was evaluated the senolytic capacity of Tvs1 in different models of cellular senescence and cancer cell lines. For that purpose, chemotherapy known to induce cellular senescence by genotoxic damage (doxorubicin and bleomycin) or by inhibiting cyclin-dependent kinases (palbociclib) was used. Cellular models of melanoma, lung adenocarcinoma (A549), hepatoma (Huh7) and neuroblastoma (SH-SY5Y) were used. Tvs1G consistently produced a senolytic effect in all the cancerous cell lines tested independently of the stimulus for achieving cellular senescence (Figure 2, Figures 4F, 4G, 4H). […]

[2] = system: senescent HGPS skin fibroblast; experiment: Senolysis in HGPS skin fibroblasts (viability, β-galactosidase staining); details: 48h
Protocol: All human cancer cell lines and the non-transformed fibroblast lines were maintained in a humidified incubator at 37°C and 5% CO2 and used between passages 4 and 15. All lines were frequently checked and ensured to be mycoplasma free. Cells were split twice a week and before archiving an 90% confluency. SKMel103, SH-SY5Y, Huh7, A549, U251 were donated from collaborators or obtained from the Translational Venomics' stock. Primary lung fibroblasts (PCS201013) and primary dermal fibroblasts (PCS201012) were purchased from ATCC (Manassas, VA, USA). Skin fibroblasts from Hutchinson-Gilford progeria syndrome donors were purchase from the Progeria Research Foundation (HGADFN 127, 143, 167, 178) or Coriell Institute (AG01972E, AG06917K and AG11513F). The cells were maintained following the recommendations of the cell banks.
Cells were plated in 96 well plates at a density of 3×10^3-8×10^3 cells/well (proliferative) or 8×10^3-10×10^3 cells/well (senescent). An MTT assay (Sigma-Aldrich, Merck KGaA, Darmstadt, Germany) was used to measure cell viability after 48-96 h of treatments. […] Absorbance was measured at 570 nm using a microplate reader (Victor Nivo; Perkin Elmer, Hamburg, Germany). For these assays, the effects of vehicle or treatments were expressed as the % of change of the non-treated cells. […]

SKMel-103 cells = experiment: MTT cell viability assay in proliferative and palbociclib-induced senescent SKMel-103 cells
Protocol: as §1
Therefore, the MTT assay was used to measure cell viability in proliferative and senescent cells. The model of cellular senescence induced by cyclin-dependent kinases (CDK) inhibition with Palbociclib (Baughn, L. B., et al. A Novel Orally Active Small Molecule Potently Induces G1 Arrest in Primary Myeloma Cells and Prevents Tumor Growth by Specific Inhibition of Cyclin-Dependent Kinase 4/6. Cancer Research (2006), 66(15), 7661-7667; Fry, D. W. et al. Specific inhibition of cyclin-dependent kinase 4/6 by PD 0332991 and associated antitumor activity in human tumor xenografts. Molecular Cancer Therapeutics, (2004) 3(11), 1427-1438) was used. Palbociclib is a CDK inhibitor, which promotes many markers of cellular senescence (Klein, M. E., et al. CDK4/6 Inhibitors: The Mechanism of Action May Not Be as Simple as Once Thought. Cancer Cell, (2018) 34(1), 9-20; Llanos, S., et al. Lysosomal trapping of palbociclib and its functional implications. Oncogene, (2019) 38(20), 3886-3902), including an enlarged and flattened cell shape and an enhanced senescence-associated β-galactosidase (SA-β-gal) activity (Figure 1A). Treatment with increasing concentrations of Tvs1 (0.1 nM to 3 µM) led to a dose-dependent reduction in viability of SKMel103 cells (Figure 1B). […]

Row | SMILES | senolytic effect [1] | senolysis / viability [2] | senolytic effect (SKMel-103 cells; tested senescent melanoma cells) | EC50 (SKMel-103 cells; Homo sapiens, SK-MEL-103, palbociclib-induced senescent SKMel-103 cells, 48h treatment, read-out: EC50 (senolytic potency)) | SI (SKMel-103 cells; senolytic index, ratio of the IC50 in proliferative and senescent cells)
1 | O=c1c(O)c(-c2ccc(O)c(O)c2)oc2cc(O)ccc12 [F, fisetin] | failed | – | – | – | –
2 | O=c1c(O)c(-c2ccc(O)c(O)c2)oc2cc(O)cc(O)c12 [Q, quercetin] | failed | – | – | – | –
3 | C[C@H]1O[C@@H](O[C@H]2[C@@H](O)C[C@H](O[C@H]3[C@@H](O)C[C@H](O[C@H]4CC[C@@]5(C)[C@H](CC[C@@H]6[C@@H]5C[C@@H](O)[C@]5(C)[C@@H](C7=CC(=O)OC7)CC[C@]65O)C4)O[C@@H]3C)O[C@@H]2C)C[C@H](O)[C@@H]1O [digoxin] | – | failed | not effective | – | –
4 | CC1(C)CCC(c2ccc(Cl)cc2)=C(CN2CCN(c3ccc(C(=O)NS(=O)(=O)c4ccc(N[C@H](CCN5CCOCC5)CSc5ccccc5)c(S(=O)(=O)C(F)(F)F)c4)cc3)CC2)C1 [navitoclax] | – | failed | – | 400 nM | 22
